Reference: US9346823B2, “Detection and use of low molecular-weight modulators of the cold-menthol receptor TRPM8” (BASF SE, priority 2008, dated 2016)

Biological target: T1, human receptor TRPM8 (Homo sapiens, UniProt Q7Z2W7)
T1 construct: expressed in transfected cells
Experiment: Assay on TRPM8 modulators: Ca2+-sensitive dye (Fluo-4) fluorescence in HEK293 cells stably transfected with human TRPM8
Type: cell-based
Details: tetracycline-induced, Fluo-4AM, agonist mode, triplicate, test concentrations 0.1-200 μM
Protocol: In this connection, “standard conditions” is understood as meaning an activity test carried out with HEK293 cells which have been transformed with human TRPM8 and loaded with calcium-sensitive dye (such as e.g. Fluo-4AM, i.e. fluo-4-acetoxymethyl ester), subsequent addition of the test compound and detection of the color change, the experimental procedure taking place at 37° C.; as described e.g. example 3 below, or in Behrendt et al. (2004) loc. cit.).
As test cell system, HEK293 cell line stably transfected with the human TRPM8 DNA (cf. above plasmid pind-M8) are produced. Preference here is given to HEK293 which offers the option, via the introduced plasmid, of inducing the TRPM8 expression by means of tetracycline.
The agonization or antagonization of the receptor can be quantified by means of a Ca^2+-sensitive dye (e.g. FURA, Fluo-4 etc.). On their own, agonists bring about an increase in the Ca^2+ signal; antagonists bring about, in the presence of e.g. menthol, a reduction in the Ca^2+ signal (in each case detected via the dye Fluo-4, which has different fluorescent properties as the result of Ca^2+ ). • a) Test Procedure:
Firstly, a fresh culture of transformed HEK cells is prepared in a manner known per se in cell culture flasks. The test cells HEK293-TRPM8 are detached from the cell culture flasks by means of trypsin and 40 000 cells/well are sown out with 100 μl of medium in 96-well plates (Greiner # 655948 poly-D-lysine-coated). To induce the receptor TRPM8, tetracycline is added to the growth medium (DMEM/HG, 10% FCS tetracycline-free, 4 mM L-glutamine, 15 μg/ml blasticidin, 100 μg/ml hygromycin B, 1 μg/ml tetracycline). On the following day, the cells are loaded with Fluo-4AM dye and the test is carried out. For this, the procedure is as follows: • addition of in each case 100 μl/well of dye solution Ca-4 kit (RB 141, Molecular Devices) to in each case 100 μl of medium (DMEM/HG, 10% FCS tetracycline-free, 4 mM L-glutamine, 15 μg/ml blasticidin, 100 μg/ml hygromycin B, 1 μg/ml tetracycline) • incubation in the hatching cabinet, 30 minutes/37° C./5% CO2, 30 minutes/RT • preparation of the test substances (various concentrations in 200 μl of HBSS buffer), and also of positive controls (various concentrations of menthol, icilin and ionomycin in 200 μl of HBSS buffer) and negative controls (only 200 μl of HBSS buffer) • addition of the test substances in amounts of 50 μl/well and measurement of the change in fluorescence (e.g. in the assay instrument FLIPR, Molecular Devices or NovoStar, BMG) at 485 nm excitation, 520 nm emission, and evaluation of the effectiveness of the various substances/concentrations and determination of the EC50 values.
The test substances are used in the assay in triplicate in concentrations of 0.1-200 μM. Normally, the compounds are kept ready in DMSO solutions and are diluted down to a maximum DMSO concentration of 2% for the assay. • b) Test Result

T1 sequence (Q7Z2W7 whole entry): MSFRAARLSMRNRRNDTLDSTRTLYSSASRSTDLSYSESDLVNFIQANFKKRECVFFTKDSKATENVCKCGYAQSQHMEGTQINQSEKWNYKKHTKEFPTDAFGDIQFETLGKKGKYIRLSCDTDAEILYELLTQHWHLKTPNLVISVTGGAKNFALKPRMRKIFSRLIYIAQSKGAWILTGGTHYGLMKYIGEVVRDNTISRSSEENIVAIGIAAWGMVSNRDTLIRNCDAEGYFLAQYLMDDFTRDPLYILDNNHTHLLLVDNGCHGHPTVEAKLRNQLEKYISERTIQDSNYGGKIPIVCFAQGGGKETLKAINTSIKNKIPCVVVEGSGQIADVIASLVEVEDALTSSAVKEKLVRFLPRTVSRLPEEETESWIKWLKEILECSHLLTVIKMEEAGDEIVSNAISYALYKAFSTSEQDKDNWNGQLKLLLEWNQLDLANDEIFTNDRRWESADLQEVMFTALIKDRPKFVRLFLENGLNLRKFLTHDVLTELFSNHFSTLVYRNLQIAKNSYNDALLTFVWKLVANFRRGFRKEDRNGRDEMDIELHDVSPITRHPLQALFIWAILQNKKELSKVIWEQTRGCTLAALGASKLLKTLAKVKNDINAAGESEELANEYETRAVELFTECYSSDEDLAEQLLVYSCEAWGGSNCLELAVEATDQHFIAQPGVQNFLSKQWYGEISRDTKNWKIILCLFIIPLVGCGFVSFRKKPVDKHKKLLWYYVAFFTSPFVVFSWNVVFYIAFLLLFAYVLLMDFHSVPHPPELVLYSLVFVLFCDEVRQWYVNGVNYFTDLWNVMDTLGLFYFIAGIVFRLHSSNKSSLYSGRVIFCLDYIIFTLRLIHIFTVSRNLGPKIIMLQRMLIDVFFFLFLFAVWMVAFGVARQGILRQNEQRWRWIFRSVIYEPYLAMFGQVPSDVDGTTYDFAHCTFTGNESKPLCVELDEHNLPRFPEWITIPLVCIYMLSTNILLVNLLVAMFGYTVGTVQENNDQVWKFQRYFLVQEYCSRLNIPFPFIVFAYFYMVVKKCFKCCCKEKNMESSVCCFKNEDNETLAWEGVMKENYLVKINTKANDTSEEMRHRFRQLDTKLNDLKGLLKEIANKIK

| SMILES | EC50 |
| --- | --- |
| COc1cnc(-c2ccccn2)nc1NC(C)C [Compound 3] | 2 µM |
| O=C(COc1ccc2c(c1)OCO2)N(c1ccccc1)C1CCCCC1 [Compound 4] | 2.5 µM |
| O=C(/C=C/c1ccc2c(c1)OCO2)N(c1ccccn1)C1CCCCC1 [Compound 5] | 2.5 µM |
| CCCCCCNC(=O)N(Cc1ccccc1)c1ccccc1 [Compound 7] | 4 µM |
| Cc1[nH]c(SC(C)C(=O)Nc2cccc(C#N)c2)nc1Cc1ccccc1 (stereo not shown) [Compound 8] | 5 µM |
| CC1(C)CC2CC(C)(CN2/C=N/c2sc3c(c2C#N)CCCCC3)C1 (stereo not shown) [Compound 10] | 10 µM |
| O=C(Nc1cccc2ccccc12)N(Cc1ccccc1)c1ccccc1 [Compound 11] | 10 µM |
| COc1ccc(C(=O)Nc2sc3c(c2CN(C)C)CCCC3)cc1 [Compound 12] | 10 µM |
| CC(NCc1ccc(OC(F)F)cc1)c1ccc2c(c1)CCCC2 (stereo not shown) [Compound 13] | 10 µM |
| CCOC(=O)C1CCN(Cc2cc(C(C)C)c(O)c(C(C)C)c2)CC1 [Compound 14] | 20 µM |
| Cc1ccc2c(C)c(C(=O)N(Cc3ccco3)C3CCS(=O)(=O)C3)oc2c1 (stereo not shown) [Compound 15] | 20 µM |
| C=CCn1c(C)cc(C(=O)CSc2nc(C)cc(C(F)(F)F)c2C#N)c1C [Compound 16] | 25 µM |
| Cn1nc(C(F)(F)F)cc1Oc1cc(C2OCCO2)cc(Cl)n1 [Compound 17] | 50 µM |

The next lines start with the values.

| EC50 | SMILES |
| --- | --- |
| 0.4 µM | CC1OC(=O)C2=C1N1CCc3ccccc3C1CC21SCCS1 (stereo not shown) [Compound 1] |
| 2 µM | CC1(C)CC(=O)C2=C(C1)N1CCc3ccccc3C1CC21SCCS1 (stereo not shown) [Compound 2] |
| 3.5 µM | O=C(Nc1ccc([N+](=O)[O-])cc1)Nc1ccccc1N1CCCCC1 [Compound 6] |
| 10 µM | O=C1CN(C(=O)c2ccccc2)c2ccc(C(F)(F)F)cc2N1 [Compound 9] |
| 100 µM | CC1=C/C(=N\NC(=O)CCN2CCN(c3ccccc3)CC2)CC1 [Compound 18] |
| 100 µM | C=C1C2(C(=O)NCCc3ccccc3)CCC(C2)C1(C)C (stereo not shown) [Compound 19] |
